Assay results as given in PubChem BioAssay (NCI).
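Interpolation was linear, between the two tested concentrations surrounding the appropriate level; five concentrations were tested over 48 hours in 96-well plates. The concentration for 50% growth inhibition is given as GI50. TGI: total growth inhibition.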

Legend:
Assay in all cases: NCI anticancer screen, dose series, 48 h
UACC-62 melanoma = system: UACC-62 melanoma
786-0 renal = system: 786-0 renal
LXFL 529 NSCLC = system: LXFL 529 NSCLC
COLO 205 colon = system: COLO 205 colon
SW-620 colon = system: SW-620 colon
CCRF-CEM leukemia = system: CCRF-CEM leukemia
OVCAR-5 ovarian = system: OVCAR-5 ovarian
DMS 273 small cell lung = system: DMS 273 small cell lung
HOP-92 NSCLC = system: HOP-92 NSCLC

Cc1cc(Cl)ccc1N1C(=O)C(=O)C(c2nc3ccccc3s2)C(=O)C1=O was tested, and the TGI (UACC-62 melanoma) was > 100 µM, the TGI (786-0 renal) was > 100 µM and the TGI (LXFL 529 NSCLC) was > 100 µM. The TGI (COLO 205 colon) was > 100 µM, the TGI (SW-620 colon) was > 100 µM and the TGI (CCRF-CEM leukemia) was > 100 µM. The TGI (OVCAR-5 ovarian) was > 100 µM, the TGI (DMS 273 small cell lung) was > 100 µM and the TGI (HOP-92 NSCLC) was > 100 µM.

With Cc1ccc(S(=O)(=O)N2CCCCC2CCO)cc1 (configuration not stated) the TGI (UACC-62 melanoma) was > 100 µM, the TGI (786-0 renal) was > 100 µM and the TGI (LXFL 529 NSCLC) was > 100 µM. For the same compound, the TGI (COLO 205 colon) was > 100 µM, the TGI (SW-620 colon) was > 100 µM and the TGI (CCRF-CEM leukemia) was > 100 µM. For the same compound, the TGI (OVCAR-5 ovarian) was > 100 µM, the TGI (DMS 273 small cell lung) was > 100 µM and the TGI (HOP-92 NSCLC) was > 100 µM.

Work on CCN(CCCl)CCNc1c2ccccc2nc2ccc(OC)cc12 yielded a TGI (UACC-62 melanoma) of 1.94 µM, a TGI (786-0 renal) of 1.84 µM and a TGI (LXFL 529 NSCLC) of 1.87 µM. For the same compound, the TGI (COLO 205 colon) was 1.82 µM, the TGI (SW-620 colon) was 2.04 µM and the TGI (CCRF-CEM leukemia) was 2.41 µM. It also gave a TGI (OVCAR-5 ovarian) of 4.04 µM, a TGI (DMS 273 small cell lung) of 2.02 µM and a TGI (HOP-92 NSCLC) of 2.43 µM.

O=C(OCCOCCOC(=O)c1c[nH]cc1-c1ccccc1)c1c[nH]cc1-c1ccccc1 was tested, and the TGI (UACC-62 melanoma) was 31 µM, the TGI (786-0 renal) was 73.1 µM and the TGI (LXFL 529 NSCLC) was 69.2 µM. For the same compound, the TGI (COLO 205 colon) was 35.6 µM, the TGI (SW-620 colon) was 76.5 µM and the TGI (CCRF-CEM leukemia) was > 100 µM. The TGI (OVCAR-5 ovarian) was 62.2 µM, the TGI (DMS 273 small cell lung) was 30.6 µM and the TGI (HOP-92 NSCLC) was 47.8 µM.

COC(=O)C1Cc2c([nH]c3ccccc23)C=N1 (configuration not stated) was tested, and the TGI (UACC-62 melanoma) was > 100 µM, the TGI (786-0 renal) was > 100 µM and the TGI (LXFL 529 NSCLC) was > 100 µM. For the same compound, the TGI (COLO 205 colon) was > 100 µM, the TGI (SW-620 colon) was > 100 µM and the TGI (CCRF-CEM leukemia) was > 100 µM. The TGI (OVCAR-5 ovarian) was > 100 µM, the TGI (DMS 273 small cell lung) was > 100 µM and the TGI (HOP-92 NSCLC) was > 100 µM.

With Cc1cccc(C)c1NC(=O)C(=O)C1C(=O)N(c2ccccc2)N=C1N (configuration not stated) the TGI (UACC-62 melanoma) was > 100 µM, the TGI (786-0 renal) was > 100 µM and the TGI (LXFL 529 NSCLC) was > 100 µM. For the same compound, the TGI (COLO 205 colon) was > 100 µM, the TGI (SW-620 colon) was > 100 µM and the TGI (CCRF-CEM leukemia) was > 100 µM. For the same compound, the TGI (OVCAR-5 ovarian) was > 100 µM, the TGI (DMS 273 small cell lung) was > 100 µM and the TGI (HOP-92 NSCLC) was > 100 µM.

With C/C=C/C1(NS(=O)(=O)c2ccc(C)cc2)CCC(C(C)(C)C)CC1 (configuration not stated) the TGI (UACC-62 melanoma) was 37.4 µM, the TGI (786-0 renal) was 43.8 µM and the TGI (LXFL 529 NSCLC) was > 100 µM. The TGI (COLO 205 colon) was 42.3 µM, the TGI (SW-620 colon) was 67.3 µM and the TGI (CCRF-CEM leukemia) was 43.2 µM. For the same compound, the TGI (OVCAR-5 ovarian) was 39.5 µM, the TGI (DMS 273 small cell lung) was 31.5 µM and the TGI (HOP-92 NSCLC) was 41.6 µM.

In the case of CC(CN(CP(=O)([O-])[O-])CP(=O)([O-])[O-])N(CP(=O)([O-])[O-])CP(=O)([O-])[O-].N[C@@H]1CCCC[C@@H]1N.[Pt+2] (configuration not stated), the GI50 (UACC-62 melanoma) is reported as > 100 µM, the TGI (UACC-62 melanoma) is reported as > 100 µM and the GI50 (786-0 renal) is reported as > 100 µM. The TGI (786-0 renal) was > 100 µM, the GI50 (LXFL 529 NSCLC) was > 100 µM and the TGI (LXFL 529 NSCLC) was > 100 µM. For the same compound, the GI50 (COLO 205 colon) was > 100 µM, the TGI (COLO 205 colon) was > 100 µM and the GI50 (SW-620 colon) was > 100 µM. For the same compound, the TGI (SW-620 colon) was > 100 µM, the GI50 (CCRF-CEM leukemia) was > 100 µM and the TGI (CCRF-CEM leukemia) was > 100 µM. For the same compound, the GI50 (OVCAR-5 ovarian) was > 100 µM, the TGI (OVCAR-5 ovarian) was > 100 µM and the GI50 (DMS 273 small cell lung) was > 100 µM. For the same compound, the TGI (DMS 273 small cell lung) was > 100 µM, the GI50 (HOP-92 NSCLC) was > 100 µM and the TGI (HOP-92 NSCLC) was > 100 µM.

N#CC(C#N)=C1NC(=O)C(c2ccccc2)C(=O)N1 (configuration not stated) was tested, and the TGI (UACC-62 melanoma) was > 100 µM, the TGI (786-0 renal) was > 100 µM and the TGI (LXFL 529 NSCLC) was > 100 µM. For the same compound, the TGI (COLO 205 colon) was > 100 µM, the TGI (SW-620 colon) was > 100 µM and the TGI (CCRF-CEM leukemia) was > 100 µM. For the same compound, the TGI (OVCAR-5 ovarian) was > 100 µM, the TGI (DMS 273 small cell lung) was > 100 µM and the TGI (HOP-92 NSCLC) was > 100 µM.

For O=S1(=O)CSc2ccc3ccccc3c2-c2c1ccc1ccccc21, the TGI (UACC-62 melanoma) was > 100 µM, the TGI (786-0 renal) was > 100 µM and the TGI (LXFL 529 NSCLC) was > 100 µM. For the same compound, the TGI (COLO 205 colon) was > 100 µM, the TGI (SW-620 colon) was > 100 µM and the TGI (CCRF-CEM leukemia) was > 100 µM. The TGI (OVCAR-5 ovarian) was > 100 µM, the TGI (DMS 273 small cell lung) was > 100 µM and the TGI (HOP-92 NSCLC) was > 100 µM.

CCCCCCCCCCCCC(Br)C(=O)SCCNC(=O)CCNC(=O)[C@@H](O)C(C)(C)COP(=O)(O)OP(=O)(O)OCC1OC(n2cnc3c(N)ncnc32)C(O)C1OP(=O)(O)O (some centres not stated) was tested, and the TGI (UACC-62 melanoma) was > 56.5 µM, the TGI (786-0 renal) was > 56.5 µM and the TGI (LXFL 529 NSCLC) was > 56.5 µM. For the same compound, the TGI (COLO 205 colon) was > 56.5 µM, the TGI (SW-620 colon) was > 56.5 µM and the TGI (CCRF-CEM leukemia) was > 56.5 µM. For the same compound, the TGI (OVCAR-5 ovarian) was > 56.5 µM, the TGI (DMS 273 small cell lung) was > 56.5 µM and the TGI (HOP-92 NSCLC) was > 56.5 µM.

With COc1ccccc1NC(=O)C1=C(C)NC(C)=C(C(=O)Nc2ccccc2OC)C1c1ccc(C(C)C)cc1 the TGI (UACC-62 melanoma) was > 100 µM, the TGI (786-0 renal) was > 100 µM and the TGI (LXFL 529 NSCLC) was > 100 µM. For the same compound, the TGI (COLO 205 colon) was > 100 µM, the TGI (SW-620 colon) was > 100 µM and the TGI (CCRF-CEM leukemia) was > 1 µM. For the same compound, the TGI (OVCAR-5 ovarian) was > 100 µM, the TGI (DMS 273 small cell lung) was > 100 µM and the TGI (HOP-92 NSCLC) was > 100 µM.
